Numbers after ± are expanded uncertainties.
Tests used:
[1] = 101.33 kPa, Liquid; for speed of sound: Pulse-echo method; for mass density: Vibrating tube method
[2] = molar heat capacity at constant pressure; settings: 101.33 kPa, Liquid, Small sample (50 mg) DSC

Row | speed of sound ([1]; 293.15 K) | mass density ([1]; 293.15 K) | speed of sound ([1]; 298.15 K) | mass density ([1]; 298.15 K) | speed of sound ([1]; 303.15 K) | mass density ([1]; 303.15 K) | speed of sound ([1]; 308.15 K) | mass density ([1]; 308.15 K) | molar heat capacity at constant pressure ([2]; 293.15 K) | molar heat capacity at constant pressure ([2]; 298.15 K) | molar heat capacity at constant pressure ([2]; 303.15 K) | molar heat capacity at constant pressure ([2]; 308.15 K) | Compound
1 | 1631.1 ± 2.2 m/s | 1283.89 ± 1.7 kg/m3 | 1619.4 ± 2.1 m/s | 1279.91 ± 1.7 kg/m3 | 1607.6 ± 2.1 m/s | 1276.26 ± 1.7 kg/m3 | 1596.3 ± 2.1 m/s | 1272.07 ± 1.7 kg/m3 | 303.73 ± 4.7 J/K/mol | 305.35 ± 4.7 J/K/mol | 306.16 ± 4.7 J/K/mol | 308.94 ± 4.8 J/K/mol | CCn1cc[n+](C)c1.F[B-](F)(F)F [1-ethyl-3-methylimidazolium tetrafluoroborate]
2 | 1400.5 ± 2.1 m/s | 944.401 ± 1.2 kg/m3 | 1380.1 ± 2.1 m/s | 939.802 ± 1.2 kg/m3 | 1361 ± 2.1 m/s | 935.117 ± 1.2 kg/m3 | 1339.9 ± 2.1 m/s | 930.414 ± 1.2 kg/m3 | 157.07 ± 2.4 J/K/mol | 158.86 ± 2.5 J/K/mol | 160.14 ± 2.5 J/K/mol | 160.66 ± 2.5 J/K/mol | Cc1ccccn1 [2-methylpyridine]
3 | 1445.9 ± 1.2 m/s | 956.581 ± 1 kg/m3 | 1424 ± 1.2 m/s | 952.002 ± 1 kg/m3 | 1404.1 ± 1.2 m/s | 947.449 ± 1 kg/m3 | 1384 ± 1.2 m/s | 942.831 ± 1 kg/m3 | 156.05 ± 2.4 J/K/mol | 158.75 ± 2.5 J/K/mol | 160.83 ± 2.5 J/K/mol | 160.96 ± 2.5 J/K/mol | Cc1cccnc1 [3-methylpyridine]
4 | 1451.1 ± 1.2 m/s | 955.099 ± 1 kg/m3 | 1431.5 ± 1.2 m/s | 950.179 ± 1 kg/m3 | 1410.7 ± 1.2 m/s | 945.413 ± 1 kg/m3 | 1389.9 ± 1.2 m/s | 940.821 ± 1 kg/m3 | 155.88 ± 2.4 J/K/mol | 158.52 ± 2.5 J/K/mol | 160.84 ± 2.5 J/K/mol | 160.83 ± 2.5 J/K/mol | Cc1ccncc1 [4-methylpyridine]

Row | Compound | speed of sound ([1]; 293.15 K) | mass density ([1]; 293.15 K) | speed of sound ([1]; 298.15 K) | mass density ([1]; 298.15 K) | speed of sound ([1]; 303.15 K) | mass density ([1]; 303.15 K) | speed of sound ([1]; 308.15 K) | mass density ([1]; 308.15 K) | molar heat capacity at constant pressure ([2]; 293.15 K) | molar heat capacity at constant pressure ([2]; 298.15 K) | molar heat capacity at constant pressure ([2]; 303.15 K) | molar heat capacity at constant pressure ([2]; 308.15 K)
5 | Cc1ccccc1N [2-methylaniline] | 1622.2 ± 1.3 m/s | 998.431 ± 1 kg/m3 | 1602.3 ± 1.3 m/s | 994.358 ± 1 kg/m3 | 1577.7 ± 1.3 m/s | 990.23 ± 1 kg/m3 | 1558.2 ± 1.3 m/s | 986.064 ± 1 kg/m3 | 215.96 ± 3.4 J/K/mol | 217.16 ± 3.4 J/K/mol | 218.43 ± 3.4 J/K/mol | 219.52 ± 3.4 J/K/mol
6 | c1ccncc1 [pyridine] | 1442 ± 1.2 m/s | 983.191 ± 1 kg/m3 | 1417.8 ± 1.2 m/s | 978.249 ± 1 kg/m3 | 1398 ± 1.2 m/s | 973.224 ± 1 kg/m3 | 1377.1 ± 1.2 m/s | 968.166 ± 1 kg/m3 | 130.49 ± 2 J/K/mol | 131.74 ± 2 J/K/mol | 132.71 ± 2.1 J/K/mol | 133.82 ± 2.1 J/K/mol
